Among the data in ChEMBL document CHEMBL1201862, “PubChem BioAssay data set” (2004) are AC50, IC50 and EC50 values, retold here.

Experiment [1] deals with DNA repair and recombination protein RAD54-like (Homo sapiens, UniProt Q92698). Description: inhibitors of human RAD54 branch migration, confirmation, biochemical, fluorescence, cherry-picked samples, dose series (AID 651657). It counts as functional.
Experiment [2] deals with T1, Voltage-gated N-type calcium channel alpha-1B subunit/Amyloid beta A4 precursor protein-binding family A member 1 (Homo sapiens, UniProt Q00975+Q02410). The format is protein assay.
The target in experiment [3] is Large T antigen (Simian virus 40, UniProt P03070). It counts as functional, Betapolyomavirus macacae.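 Note: Confirmatory-stage PubChem screen for compounds that inhibit SV40 T antigen.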
Experiment [4] addresses T1, Voltage-gated N-type calcium channel alpha-1B subunit/Amyloid beta A4 precursor protein-binding family A member 1. The format is protein assay. The source holds these as a separate data set.
The target in experiment [5] is T2, Apoptotic protease-activating factor 1 (Homo sapiens, UniProt O14727).
T2 sequence (O14727 whole entry): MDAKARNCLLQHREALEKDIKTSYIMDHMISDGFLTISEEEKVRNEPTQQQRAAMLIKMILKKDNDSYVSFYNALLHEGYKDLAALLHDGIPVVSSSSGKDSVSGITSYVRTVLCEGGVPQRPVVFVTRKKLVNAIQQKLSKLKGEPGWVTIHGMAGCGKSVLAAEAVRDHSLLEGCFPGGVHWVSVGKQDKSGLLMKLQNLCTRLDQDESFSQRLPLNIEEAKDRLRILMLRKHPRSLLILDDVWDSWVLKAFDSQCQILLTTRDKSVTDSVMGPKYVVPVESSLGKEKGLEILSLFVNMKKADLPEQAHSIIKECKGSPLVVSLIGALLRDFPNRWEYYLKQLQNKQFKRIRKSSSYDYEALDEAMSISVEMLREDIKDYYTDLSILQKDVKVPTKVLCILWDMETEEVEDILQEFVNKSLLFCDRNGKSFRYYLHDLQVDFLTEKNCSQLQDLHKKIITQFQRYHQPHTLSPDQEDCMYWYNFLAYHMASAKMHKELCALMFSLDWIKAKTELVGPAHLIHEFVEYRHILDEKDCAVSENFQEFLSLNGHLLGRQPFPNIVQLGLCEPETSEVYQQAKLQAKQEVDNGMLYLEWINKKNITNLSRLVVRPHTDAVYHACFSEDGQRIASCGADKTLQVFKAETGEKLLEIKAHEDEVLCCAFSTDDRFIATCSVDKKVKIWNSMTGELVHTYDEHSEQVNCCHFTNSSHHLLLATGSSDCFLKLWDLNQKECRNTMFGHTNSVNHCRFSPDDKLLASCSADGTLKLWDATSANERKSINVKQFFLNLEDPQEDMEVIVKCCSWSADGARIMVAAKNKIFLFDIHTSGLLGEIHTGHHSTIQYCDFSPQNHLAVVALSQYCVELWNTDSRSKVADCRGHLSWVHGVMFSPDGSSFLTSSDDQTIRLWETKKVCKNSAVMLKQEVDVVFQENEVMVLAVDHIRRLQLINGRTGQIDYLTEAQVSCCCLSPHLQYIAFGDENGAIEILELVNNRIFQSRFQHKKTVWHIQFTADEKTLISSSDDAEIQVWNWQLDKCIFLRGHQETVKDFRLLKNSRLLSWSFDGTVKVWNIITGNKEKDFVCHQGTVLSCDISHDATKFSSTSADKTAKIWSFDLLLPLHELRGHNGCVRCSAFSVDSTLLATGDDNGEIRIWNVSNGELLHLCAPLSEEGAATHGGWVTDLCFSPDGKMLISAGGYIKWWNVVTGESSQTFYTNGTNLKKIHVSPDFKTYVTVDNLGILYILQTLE
The format is functional.

Experiment [6] deals with CHO-K1. Description: Counterscreen for antagonists of the orexin 1 receptor (OX1R; HCRTR1): Homogeneous time resolved fluorescence (HTRF)-based cell-based dose response assay to identify antagonists of the parental CHO-K1 cell line. [Related pubchem assays (depositor defined):AID434989, AID435008, AID463079, AID485270, AID492963, AID492964, AID492965, AID493232, AID504699, AID504701]. The format is functional. The note with it: Cricetulus griseus.

The nature of experiment [7]: Counterscreen for antagonists of the orexin 1 receptor (OX1R; HCRTR1): Fluorescence-based cell-based high throughput dose response assay to identify antagonists of the parental CHO cell line. [Related pubchem assays (depositor defined):AID434989, AID435008, AID463079, AID485270, AID492963, AID492964, AID492965, AID493232, AID504699, AID504701]. It counts as functional.

For experiment [8], the target named is T3, Orexin/Hypocretin receptor type 1 (Homo sapiens, UniProt O43613).
T3 sequence (O43613 whole entry): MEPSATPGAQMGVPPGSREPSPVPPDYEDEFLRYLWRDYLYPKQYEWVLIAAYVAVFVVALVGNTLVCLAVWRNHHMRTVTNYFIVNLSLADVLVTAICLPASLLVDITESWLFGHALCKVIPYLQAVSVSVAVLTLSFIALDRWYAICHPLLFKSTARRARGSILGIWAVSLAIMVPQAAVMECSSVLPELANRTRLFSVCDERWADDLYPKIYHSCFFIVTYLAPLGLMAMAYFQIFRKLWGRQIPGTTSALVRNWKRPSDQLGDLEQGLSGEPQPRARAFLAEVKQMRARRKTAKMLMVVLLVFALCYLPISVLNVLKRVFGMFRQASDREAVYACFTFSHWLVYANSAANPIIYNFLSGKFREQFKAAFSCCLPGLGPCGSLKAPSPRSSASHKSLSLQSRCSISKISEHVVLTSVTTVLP
Description: Homogeneous Time Resolved Fluorescence (HTRF)-based cell-based high throughput dose response assay for antagonists of the orexin 1 receptor (OX1R; HCRTR1). [Related pubchem assays (depositor defined):AID434989, AID435008, AID463079, AID485270, AID492963, AID492964, AID492965, AID493232, AID504717, AID504718]. The format is functional. A general note: TR-FRET usually uses a lanthanide donor and a delayed reading to cut background.

Experiment [9] addresses T3, Orexin/Hypocretin receptor type 1. Description: Fluorescence-based cell-based high throughput dose response assay for antagonists of the orexin 1 receptor (OX1R; HCRTR1). [Related pubchem assays (depositor defined):AID434989, AID435008, AID463079, AID485270, AID492963, AID492964, AID492965, AID493232, AID504717, AID504718]. It counts as functional.
Experiment [10] has as its target T4, Orexin receptor type 2 (Homo sapiens, UniProt O43614).
T4 sequence (O43614 whole entry): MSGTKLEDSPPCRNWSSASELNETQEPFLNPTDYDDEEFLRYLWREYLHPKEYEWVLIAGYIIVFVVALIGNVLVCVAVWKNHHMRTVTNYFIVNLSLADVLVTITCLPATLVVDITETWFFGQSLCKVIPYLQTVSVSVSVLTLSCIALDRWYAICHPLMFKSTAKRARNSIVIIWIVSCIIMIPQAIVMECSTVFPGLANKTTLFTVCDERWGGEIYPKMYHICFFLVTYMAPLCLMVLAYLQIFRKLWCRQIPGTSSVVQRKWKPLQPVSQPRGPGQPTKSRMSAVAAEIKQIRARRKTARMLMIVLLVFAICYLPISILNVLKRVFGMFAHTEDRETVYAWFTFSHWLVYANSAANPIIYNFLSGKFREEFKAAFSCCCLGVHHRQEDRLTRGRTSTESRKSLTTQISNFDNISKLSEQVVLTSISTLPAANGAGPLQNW
Description: Counterscreen assay for antagonists of the orexin 1 receptor (OX1R; HCRTR1): Fluorescence-based cell-based dose response assay for antagonists of the orexin 2 receptor (OX2R; HCRTR2), run by assay provider. It counts as functional.

For experiment [11], the target named is T4, Orexin receptor type 2. Description: Counterscreen assay for antagonists of the orexin 1 receptor (OX1R; HCRTR1): Homogeneous Time Resolved Fluorescence (HTRF)-based cell-based dose response assay for antagonists of the orexin 2 receptor (OX2R; HCRTR2), run by assay provider. The format is functional.
Experiment [12] addresses Glucose-6-phosphate 1-dehydrogenase (Homo sapiens, UniProt P11413). Description: human G6PD enzyme inhibitors, dose response, selectivity assay for P. falciparum G6PD inhibitor project, biochemical, fluorescence (AID 504792). The format is functional.
Experiment [13] deals with T5, Replicative DNA helicase DnaB (Mycobacterium tuberculosis, UniProt P9WMR3).
T5 sequence (P9WMR3 whole entry): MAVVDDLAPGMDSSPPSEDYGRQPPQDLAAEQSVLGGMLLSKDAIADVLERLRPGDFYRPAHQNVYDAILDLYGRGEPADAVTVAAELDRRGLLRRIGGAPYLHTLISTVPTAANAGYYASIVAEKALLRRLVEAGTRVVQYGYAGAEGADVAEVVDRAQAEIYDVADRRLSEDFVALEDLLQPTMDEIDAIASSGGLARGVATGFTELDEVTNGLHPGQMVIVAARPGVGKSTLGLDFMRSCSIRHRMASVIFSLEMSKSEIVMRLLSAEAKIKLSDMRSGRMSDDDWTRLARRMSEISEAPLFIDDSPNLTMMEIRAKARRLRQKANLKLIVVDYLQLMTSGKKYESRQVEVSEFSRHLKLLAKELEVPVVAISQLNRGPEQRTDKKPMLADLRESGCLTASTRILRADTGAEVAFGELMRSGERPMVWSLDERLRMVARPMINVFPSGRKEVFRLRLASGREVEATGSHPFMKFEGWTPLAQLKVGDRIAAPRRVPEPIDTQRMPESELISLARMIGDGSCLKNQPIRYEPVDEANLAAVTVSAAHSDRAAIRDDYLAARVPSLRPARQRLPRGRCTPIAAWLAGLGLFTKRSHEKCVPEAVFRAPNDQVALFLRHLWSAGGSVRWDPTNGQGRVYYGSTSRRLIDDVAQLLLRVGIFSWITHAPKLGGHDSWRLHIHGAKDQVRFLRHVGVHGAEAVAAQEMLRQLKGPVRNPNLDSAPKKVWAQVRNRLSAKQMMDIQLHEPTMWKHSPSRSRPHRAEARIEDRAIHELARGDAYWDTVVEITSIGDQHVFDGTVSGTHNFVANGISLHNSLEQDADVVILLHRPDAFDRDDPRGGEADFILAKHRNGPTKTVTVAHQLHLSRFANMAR
Description: DnaB intein splicing inhibitors, dose response, biochemical, cell-free fluorescence (AID 449749). The format is functional.

Experiment [14] has as its target T6, Protein RecA (Mycobacterium tuberculosis, UniProt P9WHJ3).
T6 sequence (P9WHJ3 whole entry): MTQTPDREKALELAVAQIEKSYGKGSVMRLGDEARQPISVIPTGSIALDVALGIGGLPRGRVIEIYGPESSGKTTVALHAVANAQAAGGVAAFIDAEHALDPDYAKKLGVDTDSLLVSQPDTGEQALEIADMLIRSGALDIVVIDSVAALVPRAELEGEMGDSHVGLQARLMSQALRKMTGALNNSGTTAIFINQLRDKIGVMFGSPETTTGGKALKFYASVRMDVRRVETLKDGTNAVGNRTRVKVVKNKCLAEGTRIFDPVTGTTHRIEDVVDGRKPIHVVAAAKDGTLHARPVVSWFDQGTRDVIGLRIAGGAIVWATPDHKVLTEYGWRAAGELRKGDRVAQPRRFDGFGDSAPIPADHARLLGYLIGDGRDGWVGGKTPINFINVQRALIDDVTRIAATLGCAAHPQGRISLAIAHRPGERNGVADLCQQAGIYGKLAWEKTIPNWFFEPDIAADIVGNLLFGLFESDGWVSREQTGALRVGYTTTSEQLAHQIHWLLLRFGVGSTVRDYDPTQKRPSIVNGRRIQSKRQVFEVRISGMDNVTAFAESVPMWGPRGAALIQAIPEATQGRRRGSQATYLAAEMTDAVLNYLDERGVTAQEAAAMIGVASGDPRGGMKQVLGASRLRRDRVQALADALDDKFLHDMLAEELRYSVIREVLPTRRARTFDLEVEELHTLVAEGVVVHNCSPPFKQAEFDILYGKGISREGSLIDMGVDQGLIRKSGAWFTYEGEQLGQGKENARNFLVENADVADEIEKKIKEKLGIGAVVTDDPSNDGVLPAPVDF
Description: Fluorescence Cell-Free Homogeneous Dose Retest to Identify Inhibitors of RecA-Intein Splicing Activity. [Related pubchem assays (depositor defined):AID2097, AID2223, AID489010, AID492950]. The format is functional.

Experiment [15] has as its target Adenosylmethionine-8-amino-7-oxononanoate aminotransferase (Mycobacterium tuberculosis, UniProt P9WQ81). Description: Mycobacterium tuberculosis BioA enzyme inhibitor Measured in Biochemical System Using Plate Reader - 2163-02_Inhibitor_Dose_CherryPick_Activity. It counts as functional, Mycobacterium tuberculosis UT205.

Activity calls are given as the source filed them.

Adenosylmethionine-8-amino-7-oxononanoate aminotransferase, sequence (P9WQ81 whole entry): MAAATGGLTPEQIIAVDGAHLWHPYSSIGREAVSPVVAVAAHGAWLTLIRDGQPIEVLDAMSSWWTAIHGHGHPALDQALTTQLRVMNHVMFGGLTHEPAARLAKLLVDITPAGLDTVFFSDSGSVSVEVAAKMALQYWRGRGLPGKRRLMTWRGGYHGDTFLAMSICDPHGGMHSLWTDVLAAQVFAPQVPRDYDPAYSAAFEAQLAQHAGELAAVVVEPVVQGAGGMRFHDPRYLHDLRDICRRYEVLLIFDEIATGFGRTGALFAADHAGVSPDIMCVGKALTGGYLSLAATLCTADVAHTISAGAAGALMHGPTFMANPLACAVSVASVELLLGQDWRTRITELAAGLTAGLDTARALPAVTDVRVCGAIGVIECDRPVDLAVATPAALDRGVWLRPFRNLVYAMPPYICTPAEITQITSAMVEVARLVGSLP
T1 sequence (Q00975 whole entry): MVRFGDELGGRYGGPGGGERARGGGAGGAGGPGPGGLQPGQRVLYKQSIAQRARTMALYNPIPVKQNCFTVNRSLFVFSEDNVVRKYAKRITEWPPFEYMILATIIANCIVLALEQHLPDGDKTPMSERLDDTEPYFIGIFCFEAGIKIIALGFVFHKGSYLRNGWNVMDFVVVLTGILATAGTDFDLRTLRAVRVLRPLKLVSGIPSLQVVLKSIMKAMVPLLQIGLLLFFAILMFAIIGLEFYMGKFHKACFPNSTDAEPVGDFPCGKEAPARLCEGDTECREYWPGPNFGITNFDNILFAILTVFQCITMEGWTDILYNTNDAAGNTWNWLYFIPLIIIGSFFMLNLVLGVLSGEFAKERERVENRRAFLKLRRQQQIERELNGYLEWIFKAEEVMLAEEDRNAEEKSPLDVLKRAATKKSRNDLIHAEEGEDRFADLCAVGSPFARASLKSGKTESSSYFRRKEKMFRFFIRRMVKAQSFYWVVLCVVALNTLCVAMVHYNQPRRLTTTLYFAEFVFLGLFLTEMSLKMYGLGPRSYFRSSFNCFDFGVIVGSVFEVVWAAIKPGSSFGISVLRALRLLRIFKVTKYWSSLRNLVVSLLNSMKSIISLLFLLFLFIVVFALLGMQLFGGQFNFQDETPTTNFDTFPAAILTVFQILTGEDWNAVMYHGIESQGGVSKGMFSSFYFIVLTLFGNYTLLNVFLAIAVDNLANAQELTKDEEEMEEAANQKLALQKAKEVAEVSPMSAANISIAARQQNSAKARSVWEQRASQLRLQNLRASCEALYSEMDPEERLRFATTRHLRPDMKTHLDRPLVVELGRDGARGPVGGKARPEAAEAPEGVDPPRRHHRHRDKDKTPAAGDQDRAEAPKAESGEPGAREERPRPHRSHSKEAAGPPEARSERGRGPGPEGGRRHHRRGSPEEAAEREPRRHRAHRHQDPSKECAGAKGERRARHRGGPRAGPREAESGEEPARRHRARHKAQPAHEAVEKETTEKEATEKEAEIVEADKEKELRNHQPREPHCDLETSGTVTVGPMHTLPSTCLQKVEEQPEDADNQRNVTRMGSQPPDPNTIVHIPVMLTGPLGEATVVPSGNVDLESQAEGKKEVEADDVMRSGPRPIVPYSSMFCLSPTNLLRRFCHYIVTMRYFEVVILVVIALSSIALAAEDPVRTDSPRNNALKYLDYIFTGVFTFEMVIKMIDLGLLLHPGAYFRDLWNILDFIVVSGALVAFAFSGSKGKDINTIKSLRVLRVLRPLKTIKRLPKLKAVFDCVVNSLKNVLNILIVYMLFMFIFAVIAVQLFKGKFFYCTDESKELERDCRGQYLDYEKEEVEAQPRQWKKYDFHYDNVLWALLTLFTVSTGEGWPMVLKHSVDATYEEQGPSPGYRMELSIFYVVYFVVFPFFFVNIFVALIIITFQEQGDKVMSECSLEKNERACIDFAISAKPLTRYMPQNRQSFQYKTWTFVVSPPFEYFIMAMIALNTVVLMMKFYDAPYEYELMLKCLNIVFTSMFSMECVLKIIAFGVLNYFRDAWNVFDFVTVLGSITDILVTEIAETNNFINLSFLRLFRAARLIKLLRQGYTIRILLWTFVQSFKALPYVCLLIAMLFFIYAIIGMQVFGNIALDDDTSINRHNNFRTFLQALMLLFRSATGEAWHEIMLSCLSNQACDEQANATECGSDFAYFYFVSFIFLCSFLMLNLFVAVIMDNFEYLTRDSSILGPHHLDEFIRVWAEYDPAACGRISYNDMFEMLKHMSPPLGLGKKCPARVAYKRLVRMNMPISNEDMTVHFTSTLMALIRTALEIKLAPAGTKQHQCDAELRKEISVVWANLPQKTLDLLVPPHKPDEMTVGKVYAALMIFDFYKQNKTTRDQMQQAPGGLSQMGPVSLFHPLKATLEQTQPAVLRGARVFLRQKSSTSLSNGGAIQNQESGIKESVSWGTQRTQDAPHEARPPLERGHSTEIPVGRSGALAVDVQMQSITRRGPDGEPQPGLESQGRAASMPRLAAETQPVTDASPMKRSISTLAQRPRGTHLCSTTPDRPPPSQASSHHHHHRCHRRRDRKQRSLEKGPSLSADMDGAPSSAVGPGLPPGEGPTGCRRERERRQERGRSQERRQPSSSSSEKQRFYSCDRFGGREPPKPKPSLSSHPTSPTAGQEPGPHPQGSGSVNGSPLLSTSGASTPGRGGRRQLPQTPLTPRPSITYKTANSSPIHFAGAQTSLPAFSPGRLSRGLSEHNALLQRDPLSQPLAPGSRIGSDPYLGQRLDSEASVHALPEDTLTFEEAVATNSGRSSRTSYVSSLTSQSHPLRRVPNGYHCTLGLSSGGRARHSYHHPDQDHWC
T1 sequence (Q02410 whole entry): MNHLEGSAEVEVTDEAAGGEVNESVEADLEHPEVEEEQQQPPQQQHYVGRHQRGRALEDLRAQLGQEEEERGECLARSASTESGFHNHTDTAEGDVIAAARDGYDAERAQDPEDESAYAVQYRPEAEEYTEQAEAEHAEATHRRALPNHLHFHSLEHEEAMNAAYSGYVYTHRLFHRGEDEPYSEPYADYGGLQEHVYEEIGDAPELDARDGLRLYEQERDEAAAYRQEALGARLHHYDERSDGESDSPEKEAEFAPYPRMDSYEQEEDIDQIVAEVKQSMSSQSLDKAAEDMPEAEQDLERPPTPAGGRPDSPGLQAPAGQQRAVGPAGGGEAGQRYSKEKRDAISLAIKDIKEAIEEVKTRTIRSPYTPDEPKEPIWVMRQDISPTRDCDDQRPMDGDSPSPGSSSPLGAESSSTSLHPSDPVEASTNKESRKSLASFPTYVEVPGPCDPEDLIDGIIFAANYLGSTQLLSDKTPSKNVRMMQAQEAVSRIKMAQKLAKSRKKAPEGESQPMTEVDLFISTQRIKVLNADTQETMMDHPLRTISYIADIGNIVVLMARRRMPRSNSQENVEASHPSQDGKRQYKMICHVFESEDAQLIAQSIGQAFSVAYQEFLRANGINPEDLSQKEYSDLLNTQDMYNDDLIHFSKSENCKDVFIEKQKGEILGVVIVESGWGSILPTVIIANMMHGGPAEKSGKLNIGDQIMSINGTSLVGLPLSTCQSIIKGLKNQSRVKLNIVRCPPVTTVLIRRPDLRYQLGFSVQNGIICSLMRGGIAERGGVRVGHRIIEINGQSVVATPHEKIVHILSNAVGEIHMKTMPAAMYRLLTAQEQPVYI
DNA repair and recombination protein RAD54-like, sequence (Q92698 whole entry): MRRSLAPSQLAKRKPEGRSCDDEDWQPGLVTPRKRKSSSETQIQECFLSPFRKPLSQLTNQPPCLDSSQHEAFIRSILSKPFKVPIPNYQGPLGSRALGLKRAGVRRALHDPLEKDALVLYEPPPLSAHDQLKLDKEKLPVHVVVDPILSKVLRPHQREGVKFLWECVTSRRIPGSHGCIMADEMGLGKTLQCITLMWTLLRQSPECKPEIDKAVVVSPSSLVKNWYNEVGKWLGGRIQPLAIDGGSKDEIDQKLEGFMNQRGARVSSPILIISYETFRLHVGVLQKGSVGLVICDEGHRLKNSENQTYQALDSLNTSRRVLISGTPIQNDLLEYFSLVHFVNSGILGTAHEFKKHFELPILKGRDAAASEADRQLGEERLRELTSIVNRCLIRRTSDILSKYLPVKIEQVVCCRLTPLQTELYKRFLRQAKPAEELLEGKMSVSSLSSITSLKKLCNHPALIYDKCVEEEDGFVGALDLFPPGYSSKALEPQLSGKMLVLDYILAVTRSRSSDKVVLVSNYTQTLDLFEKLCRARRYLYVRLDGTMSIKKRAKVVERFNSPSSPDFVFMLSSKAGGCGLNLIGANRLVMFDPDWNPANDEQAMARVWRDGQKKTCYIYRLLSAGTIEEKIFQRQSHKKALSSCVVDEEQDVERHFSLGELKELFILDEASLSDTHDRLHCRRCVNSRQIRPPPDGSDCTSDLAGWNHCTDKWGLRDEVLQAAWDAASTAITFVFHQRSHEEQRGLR
Large T antigen, sequence (P03070 whole entry): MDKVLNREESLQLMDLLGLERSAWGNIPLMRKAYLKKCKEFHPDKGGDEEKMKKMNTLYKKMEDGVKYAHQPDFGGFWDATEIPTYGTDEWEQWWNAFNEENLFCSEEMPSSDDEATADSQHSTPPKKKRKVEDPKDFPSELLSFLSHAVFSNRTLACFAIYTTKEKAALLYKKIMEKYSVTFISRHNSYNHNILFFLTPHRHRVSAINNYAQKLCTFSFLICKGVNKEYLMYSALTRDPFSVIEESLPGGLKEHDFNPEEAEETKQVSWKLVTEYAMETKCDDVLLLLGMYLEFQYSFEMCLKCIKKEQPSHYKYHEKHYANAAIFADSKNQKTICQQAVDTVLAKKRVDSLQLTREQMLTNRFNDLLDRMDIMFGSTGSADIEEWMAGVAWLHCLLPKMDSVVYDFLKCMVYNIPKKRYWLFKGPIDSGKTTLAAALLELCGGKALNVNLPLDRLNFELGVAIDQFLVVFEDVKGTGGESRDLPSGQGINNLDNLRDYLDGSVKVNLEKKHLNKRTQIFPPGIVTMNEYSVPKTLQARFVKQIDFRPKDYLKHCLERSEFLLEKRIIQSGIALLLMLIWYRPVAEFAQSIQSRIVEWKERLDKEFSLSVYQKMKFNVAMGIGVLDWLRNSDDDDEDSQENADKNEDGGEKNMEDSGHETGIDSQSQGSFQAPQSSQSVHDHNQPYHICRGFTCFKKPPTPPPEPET

By AC50 is commonly meant the concentration at which the activity in the assay is half-maximal. Regarding `O=c1c2ccccc2oc2ccc(NCCCN3CCOCC3)cc12`, the AC50 in experiment [1] is 34.2 µM (active).
Usually IC50 stands for the concentration that inhibits the measured activity by half. In the case of `CC1(C)[N+]([O-])=c2ccc([N+](=O)[O-])cc2=[N+]1[O-].NO`, the IC50 is 22.1 µM (active) in experiment [2], 6.55 µM (active) in experiment [3], 0.26 µM (active) in experiment [4] and 11.7 µM (active) in experiment [5].
In the case of `COC(=O)C1=C(c2ccccc2OCc2ccccc2)C[C@@H]2CC[C@H]1N2C(=O)NCCOc1ccccc1Cl`, the IC50 in experiment [6] was > 66.2 µM (inactive); in experiment [7] it was 48.6 µM (inactive); in [8], 3.71 µM (active); in experiment [9] it was > 16.6 µM (inactive); in [10], 3.9 µM (active); in experiment [11], > 50 µM (inactive).
The term EC50 denotes the concentration at which the effect is half-maximal. For the compound `Nc1ccc(N(CCO)CCO)cc1`, the figures for the IC50 in [12] and in experiment [5] were > 80 µM (inactive) and 88.3 µM (active), respectively. In [13], the AC50 was 256 µM (active). The EC50 in [14] was > 380 µM (inconclusive).
For the compound `Cc1ccccc1NC(=O)C1CCCN1S(=O)(=O)c1ccccc1C(F)(F)F` (stereo not drawn), the IC50 in experiment [6] was > 66.2 µM (inactive); in experiment [7], > 49.8 µM (inactive); in experiment [8], 0.352 µM (active); in experiment [9], 4.95 µM (active); in experiment [10], 10.1 µM (inactive); in experiment [11], 2.34 µM (active).
Take `CN1c2ccc(-c3cccc(F)c3)cc2[C@H]2[C@H](CCN2C(=O)C2CC2)[C@H]1CO`: in [15], the AC50 was 0.134 µM (active).
Take `CO/C(O)=C1\C(C)=Nc2sc(C(N)=O)c(N)c2C1c1ccncc1` (stereo not drawn): in [15], the AC50 is 4.4 µM (active).
